Here are results for 30 molecules from ChEMBL document CHEMBL5512597, “Triazole hybrid compounds: A new frontier in malaria treatment” (Eur J Med Chem, 2023).

≈ marks a conversion by molar mass, not a printed value.

The subject of series [1] is Plasmodium falciparum. Kind of series: Antimalarial activity against CQ-resistant Plasmodium falciparum K1. It is filed as functional, organism-based.
Series [2] concerns Plasmodium falciparum. As to the kind of experiment: Antimalarial activity against Plasmodium falciparum […] incubated for 48 hrs. It is filed as functional, organism-based.
Series [3] relates to Plasmodium falciparum. As to the kind of experiment: Antiplasmodial activity against CQ-sensitive Plasmodium falciparum F32 Tanzania assessed as parasite growth inhibition incubated for 48 hrs. In kind it is functional, organism-based.
The test system of series [4] is Plasmodium falciparum. As to the kind of experiment: Antiplasmodial activity against CQ-sensitive Plasmodium falciparum NF54. In kind it is functional, organism-based.
The nature of series [5]: Cytotoxicity against African green monkey Vero cells. In kind it is toxicity, cell-based. To be noted: chlorocebus sabaeus.
Series [6] relates to Plasmodium falciparum. As to the kind of experiment: Antimalarial activity against Plasmodium falciparum 3D7 at asexual erythrocytic stage assessed as parasite growth inhibition measured after 24 hrs by [3H]-hypoxanthine incorporation assay. It is filed as functional, organism-based.
Series [7] concerns Plasmodium falciparum. Kind of series: Antimalarial activity against CQ-resistant Plasmodium falciparum Dd2. In kind it is functional, organism-based.
Series [8] can be described thus: Cytotoxicity against human erythrocytes. In kind it is toxicity, cell-based, Erythrocyte.
For series [9], the system named is Plasmodium falciparum. Kind of series: Antimalarial activity against Plasmodium falciparum 3D7 infected in erythrocytes assessed as parasite growth inhibition incubated for 42 hrs by [3H]-hypoxanthine incorporation assay. It is filed as functional, organism-based. Particulars: 3D7, Erythrocyte.
The subject of series [10] is Plasmodium falciparum. As to the kind of experiment: Antimalarial activity against Plasmodium falciparum 3D7 assessed as inhibition of parasitemia incubated for 72 hrs by fluorescence based assay. In kind it is functional, organism-based. Particulars: 3D7, 72 h.
In series [11] the test system is Plasmodium falciparum. Kind of series: Antiplasmodial activity against Plasmodium falciparum 3D7 at asexual erythrocytic stage infected in human erythrocytes assessed as parasite growth inhibition incubated for 42 hrs by [3H]-hypoxanthine incorporation assay. To be noted: 3D7, Erythrocyte. In kind it is functional, organism-based.

The molecule `C=CCn1cc(COc2ccc([C@@H]3[C@H](Oc4ccccc4)C(=O)N3c3ccc(C)cc3)cc2)nn1` showed a half-inhibitory concentration (IC50) in series [1] of 8.43 µM.

Turning to `Cc1nn(-c2ccccc2)c(-n2cncn2)c1-c1cc(-c2cccs2)nc2nc3ccccc3n12`, in series [2], the midpoint of inhibition, the IC50, lay at 0.83 µg/mL (≈ 1.75 µM).

As to `CCCCCCCCCCCn1cc(COC2=CC(=O)c3ccccc3C2=O)nn1`, the IC50 in series [3] worked out at 17 µM.

In series [4], `CC1(C)[C@@H](O)CC[C@]2(C)[C@H]3C(=O)C=C4[C@@H]5C[C@@](C)(C(=O)OCc6cn(-c7ccc(O)cc7[N+](=O)[O-])nn6)CC[C@]5(C)CC[C@@]4(C)[C@]3(C)CC[C@@H]12` returned a 50% inhibitory concentration (IC50) of 0.47 µM. In series [5], the CC50 came to 253 µM.

`NS(=O)(=O)c1ccc(-n2cc(COc3cc(=O)oc4ccccc34)nn2)cc1`: the concentration for half-maximal inhibition (IC50) in series [6] worked out at 100 µM.

For `CC(=O)c1cccc(-n2cc(COC(=O)[C@@]3(C)CC[C@]4(C)CC[C@]5(C)C(=CC(=O)[C@@H]6[C@@]7(C)CC[C@H](O)C(C)(C)[C@@H]7CC[C@]65C)[C@@H]4C3)nn2)c1`, the midpoint of inhibition in series [4], the IC50, lay at 3.5 µM. Further, the midpoint of cytotoxicity in series [5], the CC50, lay at 213 µM. In series [7], `OCc1cn(Cc2ccc(Cl)cc2)nn1` came in with a 50% inhibitory concentration (IC50) of 22.1 µg/mL (≈ 98.9 µM). In addition, the CC50 in series [8] came out at 88.6 µg/mL (≈ 396 µM).

Molecule `O=C1[C@@H](Oc2ccc(Cl)cc2Cl)[C@@H](c2ccc(OCc3cn(Cc4ccccc4)nn3)cc2)N1c1ccc(OCc2cn(Cc3ccccc3)nn2)cc1` gave an IC50 in series [1] of under 0.97 µM. In the case of `CC(=O)c1ccc(-n2cc(COC(=O)[C@@]3(C)CC[C@]4(C)CC[C@]5(C)C(=CC(=O)[C@@H]6[C@@]7(C)CC[C@H](O)C(C)(C)[C@@H]7CC[C@]65C)[C@@H]4C3)nn2)cc1`, the half-maximal inhibitory concentration (IC50) in series [4] was over 10 µM. For the same molecule, the midpoint of cytotoxicity in series [5], the CC50, lay at 226 µM. On to `COc1ccc2cc3[n+](cc2c1OCc1cn(-c2ccc(S(=O)(=O)N4CCN(c5ccccn5)CC4)cc2)nn1)CCc1cc2c(cc1-3)OCO2.[Cl-]`, for which the 50% inhibitory concentration (IC50) in series [9] came to 1 µg/mL. On to `Cc1nn(-c2ccccc2)c(-n2cncn2)c1-c1cc(-c2cc[nH]c2)nc2nc3ccccc3n12`, for which the IC50 in series [2] was found to be 0.092 µg/mL (≈ 0.201 µM). `CCOC(=O)c1cn(-c2ccccc2)nn1`: the IC50 in [10] turned out to be 12.8 µM. As for `NS(=O)(=O)c1ccc(-n2cc(COc3ccc(F)cc3)nn2)cc1`, the IC50 in [11] came to 15.4 µg/mL (≈ 44.2 µM).

As to `O=S(=O)(c1ccc(-n2cc(COc3ccccc3)nn2)cc1)N1CCCCC1`, the half-inhibitory concentration (IC50) in series [11] was over 50 µg/mL. Turning to `Cc1cc(C)nc(NS(=O)(=O)c2ccc(-n3cc(COc4cc5oc(=O)cc(C)c5cc4Cl)nn3)cc2)n1`, the concentration for half-maximal inhibition (IC50) in [6] was determined as 18.1 µM. `O=[N+]([O-])c1ccc(Cn2cc(-c3ccccc3CO)nn2)cc1` showed an IC50 in series [7] of over 100 µg/mL. The molecule further showed a 50% cytotoxic concentration (CC50) in series [8] of 33.3 µg/mL (≈ 107 µM). In [2], `COc1ccc(-c2cc(-c3c(C)nn(-c4ccccc4)c3-n3cncn3)n3c(n2)nc2ccccc23)cc1` registered an IC50 of 1.45 µg/mL (≈ 2.91 µM). Still for that read-out and setting: as for `Cc1nn(-c2ccccc2)c(-n2cncn2)c1-c1cc(-c2ccccc2)nc2nc3ccccc3n12`, the figure is 1.45 µg/mL (≈ 3.09 µM). Turning to `Cc1cc(=O)oc2cc(OCc3cn(-c4ccc(S(=O)(=O)N5CCOCC5)cc4)nn3)c(Cl)cc12`, the half-maximal inhibitory concentration (IC50) in [6] was determined as 50.4 µM. Take `CC1(C)[C@@H](O)CC[C@]2(C)[C@H]3C(=O)C=C4[C@@H]5C[C@@](C)(C(=O)OCc6cn(-c7ccc([N+](=O)[O-])cc7)nn6)CC[C@]5(C)CC[C@@]4(C)[C@]3(C)CC[C@@H]12`: the half-maximal inhibitory concentration (IC50) in [4] was 2.71 µM. It took 175 µM to reach half-maximal cytotoxicity in [5] (CC50). As to `O=c1cc(OCc2cn(-c3ccc(S(=O)(=O)N4CCOCC4)cc3)nn2)c2ccccc2o1`, the 50% inhibitory concentration (IC50) in series [6] was 34.2 µM. For the molecule `Cc1nn(-c2ccccc2)c(-n2cncn2)c1-c1cc(-c2ccc(O)cc2)nc2nc3ccccc3n12`, in series [2], half-maximal inhibition (IC50) required 0.054 µg/mL (≈ 0.111 µM).

In series [4], `CC1(C)[C@@H](O)CC[C@]2(C)[C@H]3C(=O)C=C4[C@@H]5C[C@@](C)(C(=O)OCc6cn(-c7ccc(F)cc7)nn6)CC[C@]5(C)CC[C@@]4(C)[C@]3(C)CC[C@@H]12` yielded a half-inhibitory concentration (IC50) of 8.82 µM. In addition, half-maximal cytotoxicity in [5] (CC50) was put at 226 µM. The molecule `Br.O=[N+]([O-])c1ccc(Cn2cc(-c3ccccc3C[P+](c3ccccc3)(c3ccccc3)c3ccccc3)nn2)cc1` showed a 50% inhibitory concentration (IC50) in series [7] of over 100 µg/mL. The CC50 in [8] was over 100 µg/mL. In [1], `COc1ccc(N2C(=O)[C@@H](Oc3ccccc3)[C@H]2c2ccc(OCc3cn(Cc4ccccc4)nn3)cc2)cc1OC` came in with a 50% inhibitory concentration (IC50) of 5.14 µM. `CC1(C)[C@@H](O)CC[C@]2(C)[C@H]3C(=O)C=C4[C@@H]5C[C@@](C)(C(=O)OCc6cn(-c7ccc(Cl)cc7)nn6)CC[C@]5(C)CC[C@@]4(C)[C@]3(C)CC[C@@H]12` had a half-maximal inhibitory concentration (IC50) in series [4] of 0.48 µM. Also, half-maximal cytotoxicity in series [5] (CC50) was put at 391 µM. Turning to `Cc1c(-c2ccccc2)c2ccc(OCc3cn(-c4ccc(S(N)(=O)=O)cc4)nn3)cc2oc1=O`, the IC50 in series [6] amounted to 3.68 µM.

For `Cc1ccc(-c2cc(-c3c(C)nn(-c4ccccc4)c3-n3cncn3)n3c(n2)nc2ccccc23)cc1`, in [2], the concentration for half-maximal inhibition (IC50) turned out to be 1.5 µg/mL (≈ 3.11 µM). Turning to `COc1ccc2cc3[n+](cc2c1OCc1cn(-c2ccc(S(=O)(=O)Nc4ccc(Cl)cc4)cc2)nn1)CCc1cc2c(cc1-3)OCO2.[Cl-]`, the IC50 in [9] was found to be 0.1 µg/mL.

On to `CO[C@@H]1C(=O)N(c2ccc(OCc3cn(Cc4ccccc4)nn3)cc2)[C@@H]1c1ccc(OCc2cn(Cc3ccccc3)nn2)cc1`, for which the IC50 in series [1] was 0.85 µM.

By IC50 is commonly meant the concentration needed to halve the response being measured. By CC50 is commonly meant the concentration at which the toxic effect on the cells reaches its halfway point.
